Legend:
in vitro = format: cell-based; settings: human
Procedure: To examine the performance of the array on a chip form for cell culture, carcinomic human alveolar basal epithelial cells (A549, ATCC, Manassas, Va., USA) were utilized. A549 cells were cultured in F-12K medium (Gibco 21127, Invitrogen Co., Carlsbad, Calif., USA) with 10% v/v fetal bovine serum (FBS) (Gibco 10082, Invitrogen Carlsbad, Calif., USA) and 1% v/v antibiotic-antimycotic (Gibco 15240, Invitrogen, Carlsbad, Calif., USA). The stocks were maintained under 5% CO2 in T25 cell culture flasks (Nunc 156367, Thermo Scientific Inc., Rochester, N.Y., USA), and passaged by dissociation with 0.25% trypsin-EDTA (Gibco 25200, Invitrogen, Carlsbad, Calif., USA). […]
For oxygen scavenging, pyrogallol (benzene-1,2,3-triol, C6H6O3) (87-66-1, Alfa Aesar, Ward Hill, Mass., USA) and sodium hydroxide (NaOH) (30620, Sigma-Aldrich, St Louis, Mo., USA) were introduced into the microfluidic channels to control oxygen tensions. The oxygen tensions in the cell culture wells were calibrated by measuring the relative fluorescence lifetime of an oxygen sensitive fluorescence dye, tris(2,2′-bypyridyl) ruthenium […] chloride (50525-27-4, Acros Organics, Geel, Belgium), while flowing chemicals in the underneath channels with various concentrations using the experimental setup as shown in FIG. 2(a). […]

A549 cells [1] = assay: PrestoBlue normalized cell viability of A549 cells treated with TPZ under various oxygen tensions on the array platform (48 hours); format: cell-based, human
Procedure: In the experiments, 1 M NaOH and pyrogallol solutions with concentrations of 0, 190, and 500 μg ml^−1 at flow rates of 20 μml^−1 were used to set the oxygen tensions inside the cell culture wells as normoxia (˜20%), 7.0%, and 1.4%, respectively, and the drug, TPZ, with concentrations of 0, 10, 25, 50, and 100 mM were applied. The cells were cultured under different conditions, including: 20% oxygen and 0 mM TPZ; 20% oxygen and 50 mM TPZ; and 1.4% oxygen and 50 mM TPZ, for 48 hours. […] Furthermore, the cell viability was checked using a live/dead stain solution containing calcein AM (1 mM) and ethidium homodimer-1 (2 mM) from LIVE/DEAD Viability/Cytotoxicity Kit (L3224, Invitrogen). […] To quantitatively characterize the cell viabilities of A549 cells treated with TPZ under various oxygen tensions, the PrestoBlue cell viability assays were performed in the experiments. […] In order to minimize variations between the experiments, the measured fluorescence intensity from each well was normalized to the average intensity of the cell culture wells, in which the cells were cultured under normoixa without TPZ (i.e. 0 mM TPZ). To compare the differences between the normalized cell viabilities for various oxygen tensions, statistical analysis, unpaired, two-tailed Student's t-tests were performed in this study.

A549 cells [2] = assay: Cell morphology and attachment of A549 cells cultured with TPZ on the array platform; format: cell-based, human; settings: 48 hours
Procedure: In the experiments, 1 M NaOH and pyrogallol solutions with concentrations of 0, 190, and 500 μg ml^−1 at flow rates of […] were used to set the oxygen tensions inside the cell culture wells as normoxia (˜20%), 7.0%, and 1.4%, respectively, and the drug, TPZ, with concentrations of […] were applied. The cells were cultured under different conditions, including: 20% oxygen and 0 mM TPZ; 20% oxygen and 50 mM TPZ; and 1.4% oxygen and 50 mM TPZ, for 48 hours. […] Furthermore, the cell viability was checked using a live/dead stain solution containing calcein AM (1 mM) and ethidium homodimer-1 (2 mM) from LIVE/DEAD Viability/Cytotoxicity Kit (L3224, Invitrogen). The great viability (>95% by analyzing four fluorescence images taken in different cell culture wells using an image analysis software MetaMorph from Molecular Devices, Sunnyvale, Calif.) of the cells cultured under the control conditions for 48 hours confirmed the great cell compatibility of the multi-layer PDMS microfluidic device according to the invention. […] To quantitatively characterize the cell viabilities of A549 cells treated with TPZ under various oxygen tensions, the PrestoBlue cell viability assays were performed in the experiments. The developed microfluidic array platform can be directed placed into a microplate reader commonly used in biological labs for assay readout. […]

A 549 cells = assay: Fluorescence-based cell viability in conventional 96-well plates with oxygen tension-controlled incubator, compared with the device; design: species or system human; settings: 96-well plate, 48 hours, normoxia and hypoxia
Procedure: A comparison of cell viabilities under various drug treatments in normoxia and hypoxia conditions using the cell culture array platform according to the invention and conventional 96-well plates (167008, Nunclon DELTA Surface, Nunc) with an oxygen tension-controlled cell incubator (Heracell 240i, Thermo Scientific). In the well plate experiments, approximate 5000 A 549 cells were seeded into each well. The cells with 80 μl medium were incubated overnight in the cell incubator to ensure the cell attachment onto the wells before the drug treatments, and 20 μl drug solutions with various TPZ concentrations were than added into the wells. The cells were incubated with drug-contained medium for 48 hours. After the testing, the cell viabilities were estimated using the fluorescence-based cell viability assay, and read by the plate reader.

SMILES: Nc1n[n+]([O-])c2ccccc2[n+]1[O-] [TPZ, 3-amino-1,2,4-benzotriazine-1,4-dioxide]
- cytotoxicity at 12 h (in vitro): > 20%
- normalized cell viability at 1.4% oxygen tension versus 7.0% oxygen tension (A549 cells [1]): lower statistically than that for the 7.0% oxygen tension condition
- normalized cell viability, normoxia higher than low oxygen tensions (7.0% and 1.4%) (A549 cells [1]; TPZ concentrations higher than 25 mM, normalized to normoxia without TPZ): more than 20%
- cell morphology / attachment (A549 cells [2]; 1.4% oxygen and 50 mM TPZ): more cells became rounded and detached from the substrate
- cell morphology / attachment (A549 cells [2]; 20% oxygen and 50 mM TPZ): the shapes of the cells became rounded and some cells detached from the substrate
- hypoxia-activated cytotoxicity in well plates compared with the device (A 549 cells): more hypoxia-activated cytotoxicity

From US20140142000A1, “MICROFLUIDIC ARRAY PLATFORM FOR SIMULTANEOUS CELL CULTURE UNDER OXYGEN TENSIONS” (Academia Sinica, priority 2012, published 2014)
